Laboratory results: article PMC9166766 (Experimental & Molecular Medicine, 2022)

Legend:
[1] = system: Jurkat T cells (PMA and ionomycin-induced gene expression); test: mRNA sequencing of activated Jurkat T cells; type: cell-based, human; conditions: P+I 8 h
Description: We then extracted RNA from these cells. Construction of the cDNA library and next-generation sequencing was performed at LAS (Gimpo, Korea). We sequenced all samples on an Illumina NextSeq 500 system with 75 paired-end reads. For the RNA sequencing analysis, reads for each sample were aligned to the human genome (GRCh37/hg19 genome assembly) using STAR 2.4.0.1[25] with default settings. We used HOMER tools to quantify and normalize the defined genes in RefSeq transcripts. FPKM normalized genes were hierarchically clustered using Cluster3.0[26]. We visualized refined data with Java Treeview (http://jtreeview.sourceforge.net). We conducted gene ontology analysis of each cluster using the DAVID web tool (https://david.ncifcrf.gov). Finally, we visualized the expression levels of target genes using the Integrative Genomics Viewer (http://software.broadinstitute.org/software/igv). The raw data were submitted to the NCBI Gene Expression Omnibus under accession number GSE185561.
Fig. 3 The CABIN1 peptide inhibits T-cell activation. a Heatmap of altered genes affected by FK506 treatment or CABIN1 peptide expression upon T-cell activation. b Gene Ontology analysis of cluster III. c mRNA expression levels of genes included in cluster III. d qRT-PCR data of genes in c. The experiment was independently repeated at least three times, and the data are presented as the mean ± standard deviation. Statistical differences were determined using two-tailed Student’s t-test. *p < 0.05, **p < 0.01, ***p < 0.001, NC negative control.

[2] = system: tNFATC2 nuclear import; test: Nuclear localization of EGFP-tNFATC2 by confocal microscopy in Jurkat T cells; type: cell-based; conditions: 40 nM PMA and 1 μM ionomycin 4 h, FK506 0.5 μM, n = 10-12
Description: We transfected Jurkat T cells with the pCAG-EGFP-tNFATC2-IRES-mCherry-peptide by electroporation. After two days, we pretreated these cells with 0.5 μM FK506 for 30 min. Then, we treated them with 40 nM PMA and 1 μM ionomycin under culture conditions for 4 h. Before imaging by a confocal laser scanning microscope (Nikon, Tokyo, Japan), we treated the cells with 10 μg/ml Hoechst 33342 (Invitrogen, Waltham, MA, USA) to stain nuclei. Colocalization analysis of mCherry and Hoechst was performed with ImageJ and its plugin JACoP to measure the Manders coefficient[23],[24].
Scale bar, 50 μm e Nuclear-localized tNFATC2 was measured by calculating the colocalization ratio between Hoechst (M1) and EGFP (M2).

Question: Which results are given for C=CC[C@@H]1/C=C(\C)C[C@H](C)C[C@H](OC)[C@H]2O[C@@](O)(C(=O)C(=O)N3CCCC[C@H]3C(=O)O[C@H](/C(C)=C/[C@@H]3CC[C@@H](O)[C@H](OC)C3)[C@H](C)[C@@H](O)CC1=O)[C@H](C)C[C@@H]2OC [FK506, reference compound]?
Answer: TDRD9 expression ([1]; NC 1.428, NC_P+I 25.902): 1.245 FPKM; LOC729603 expression ([1]; NC 1.468, NC_P+I 5.071): 2.179 FPKM; PDGFA expression ([1]; NC 1.497, NC_P+I 26.809): 3.25 FPKM; PHACTR2 expression ([1]; NC 1.659, NC_P+I 9.467): 2.927 FPKM; CABP1 expression ([1]; NC 1.702, NC_P+I 5.834): 1.201 FPKM; POU2AF1 expression ([1]; NC 1.84, NC_P+I 36.298): 2.274 FPKM; SPRY1 expression ([1]; NC 2.079, NC_P+I 12.391): 4.074 FPKM; GFOD1 expression ([1]; NC 2.283, NC_P+I 12.861): 4.187 FPKM; DSTYK expression ([1]; NC 2.356, NC_P+I 7.198): 3.501 FPKM; FMNL2 expression ([1]; NC 2.395, NC_P+I 6.813): 2.726 FPKM; ADORA2A expression ([1]; NC 2.492, NC_P+I 11.633): 0.998 FPKM; CD27 expression ([1]; NC 2.525, NC_P+I 27.462): 3.098 FPKM; TNFRSF4 expression ([1]; NC 2.597, NC_P+I 31.683): 2.933 FPKM; REL expression ([1]; NC 2.654, NC_P+I 20.219): 4.749 FPKM; JAK2 expression ([1]; NC 2.788, NC_P+I 26.566): 5.248 FPKM; LRRC8B expression ([1]; NC 2.89, NC_P+I 28.699): 3.555 FPKM; NPDC1 expression ([1]; NC 3.008, NC_P+I 8.759): 4.328 FPKM; CD27-AS1 expression ([1]; NC 3.088, NC_P+I 14.958): 5.11 FPKM; CST7 expression ([1]; NC 3.315, NC_P+I 14.15): 2.338 FPKM; TAGAP expression ([1]; NC 3.351, NC_P+I 128.498): 4.352 FPKM; CD55 expression ([1]; NC 3.587, NC_P+I 39.451): 6.015 FPKM; GTDC1 expression ([1]; NC 3.595, NC_P+I 10.378): 4.629 FPKM; KCNK5 expression ([1]; NC 3.84, NC_P+I 14.865): 3.906 FPKM; MYO1D expression ([1]; NC 4.114, NC_P+I 11.118): 4.59 FPKM; RDH10 expression ([1]; NC 4.125, NC_P+I 19.889): 5.856 FPKM; COL27A1 expression ([1]; NC 4.149, NC_P+I 17.216): 4.463 FPKM; PLK3 expression ([1]; NC 4.432, NC_P+I 14.807): 5.257 FPKM; NFATC1 expression ([1]; NC 4.511, NC_P+I 15.287): 3.793 FPKM; ASAP1 expression ([1]; NC 4.678, NC_P+I 18.37): 7.765 FPKM; GRK5 expression ([1]; NC 5.451, NC_P+I 21.464): 8.481 FPKM; CCDC64 expression ([1]; NC 5.477, NC_P+I 33.545): 10.044 FPKM; ATG14 expression ([1]; NC 5.727, NC_P+I 30.239): 7.863 FPKM; PELI1 expression ([1]; NC 5.755, NC_P+I 16.085): 8.175 FPKM; ARHGEF3 expression ([1]; NC 6.146, NC_P+I 31.337): 8.637 FPKM; PKIA expression ([1]; NC 6.444, NC_P+I 49.019): 13.962 FPKM; LTBP4 expression ([1]; NC 7.304, NC_P+I 33.466): 8.427 FPKM; LAMP3 expression ([1]; NC 8.064, NC_P+I 31.61): 6.412 FPKM; LAX1 expression ([1]; NC 8.344, NC_P+I 24): 8.052 FPKM; PTPN22 expression ([1]; NC 8.928, NC_P+I 45.38): 6.37 FPKM; VAMP1 expression ([1]; NC 9.566, NC_P+I 50.97): 14.793 FPKM; NINJ1 expression ([1]; NC 10.319, NC_P+I 76.622): 11.769 FPKM; KCNK1 expression ([1]; NC 10.828, NC_P+I 36.893): 10.967 FPKM; CD97 expression ([1]; NC 10.97, NC_P+I 49.481): 19.394 FPKM; FBXO34 expression ([1]; NC 11.735, NC_P+I 48.015): 14.612 FPKM; TBC1D20 expression ([1]; NC 11.844, NC_P+I 35.808): 17.7 FPKM; MIR6775 expression ([1]; NC 12.409, NC_P+I 50.527): 19.643 FPKM; AGK expression ([1]; NC 14.395, NC_P+I 39.056): 14.029 FPKM; FYN expression ([1]; NC 14.671, NC_P+I 58.084): 16.523 FPKM; MIR6821 expression ([1]; NC 17.553, NC_P+I 62.894): 13.626 FPKM; NDFIP1 expression ([1]; NC 19.638, NC_P+I 54.615): 22.485 FPKM; TBC1D4 expression ([1]; NC 20.739, NC_P+I 73.749): 12.549 FPKM; MAP2K3 expression ([1]; NC 21.676, NC_P+I 144.057): 41.815 FPKM; PTPN6 expression ([1]; NC 22.163, NC_P+I 77.092): 20.906 FPKM; FXYD5 expression ([1]; NC 25.643, NC_P+I 101.352): 41.346 FPKM; BCL2L1 expression ([1]; NC 31.375, NC_P+I 113.956): 39.402 FPKM; ATP6V1B2 expression ([1]; NC 33.172, NC_P+I 129.395): 50.672 FPKM; PIM3 expression ([1]; NC 37.434, NC_P+I 180.382): 42.827 FPKM; PPIF expression ([1]; NC 58.328, NC_P+I 188.301): 50.291 FPKM; proportion of nuclear-localized tNFATC2 [2]: lowest
